Key:
[1] = target: T1, ATP-citrate synthase (Rattus norvegicus, UniProt P16638); experiment: Inhibition of rat liver ACLY by fluorimetric analysis
T1 sequence (P16638 whole entry): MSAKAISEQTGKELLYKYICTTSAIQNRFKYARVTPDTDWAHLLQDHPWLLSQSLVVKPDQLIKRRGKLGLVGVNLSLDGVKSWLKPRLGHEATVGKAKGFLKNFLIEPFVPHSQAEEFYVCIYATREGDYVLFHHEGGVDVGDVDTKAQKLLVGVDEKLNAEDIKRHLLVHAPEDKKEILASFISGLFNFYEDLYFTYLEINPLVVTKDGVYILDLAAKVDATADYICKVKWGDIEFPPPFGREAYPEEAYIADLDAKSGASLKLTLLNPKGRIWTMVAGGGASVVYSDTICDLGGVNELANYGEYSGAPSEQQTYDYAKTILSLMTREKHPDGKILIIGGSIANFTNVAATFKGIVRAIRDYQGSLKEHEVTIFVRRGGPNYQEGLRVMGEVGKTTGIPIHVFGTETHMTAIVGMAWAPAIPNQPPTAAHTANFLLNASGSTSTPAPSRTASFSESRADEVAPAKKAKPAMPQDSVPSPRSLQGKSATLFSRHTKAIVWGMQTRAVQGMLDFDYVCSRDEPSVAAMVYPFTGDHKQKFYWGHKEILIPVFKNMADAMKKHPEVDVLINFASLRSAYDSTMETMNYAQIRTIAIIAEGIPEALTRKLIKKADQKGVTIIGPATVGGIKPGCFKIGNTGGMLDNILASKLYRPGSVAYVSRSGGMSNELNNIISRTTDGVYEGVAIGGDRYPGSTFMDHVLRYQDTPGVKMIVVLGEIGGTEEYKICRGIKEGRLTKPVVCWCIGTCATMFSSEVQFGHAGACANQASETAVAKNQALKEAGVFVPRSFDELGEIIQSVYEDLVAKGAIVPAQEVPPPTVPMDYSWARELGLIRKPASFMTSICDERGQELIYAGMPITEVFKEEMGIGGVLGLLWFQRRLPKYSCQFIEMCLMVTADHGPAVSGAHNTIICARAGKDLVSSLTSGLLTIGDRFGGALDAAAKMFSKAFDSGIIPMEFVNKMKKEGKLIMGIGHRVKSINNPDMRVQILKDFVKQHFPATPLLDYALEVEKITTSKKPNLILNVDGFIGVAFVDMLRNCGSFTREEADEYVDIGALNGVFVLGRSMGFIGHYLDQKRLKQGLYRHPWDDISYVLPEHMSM

[2] = target: T1, ATP-citrate synthase
[3] = Inhibition of rat liver ACC
[4] = tested on: Escherichia coli; experiment: Ratio of biotin Ki to compound Ki for Escherichia coli ACC
[5] = Competitive inhibition of Escherichia coli ACC carboxyltransferase activity using malonyl coA as substrate
[6] = tested on: MDA-MB-435; experiment: Cytotoxicity against human MDA-MB-435 cells; format: functional, cell-based
[7] = target: T2, Fatty acid synthase (Homo sapiens, UniProt P49327); experiment: Antagonist activity at human recombinant FASN thioesterase domain by fluorogenic assay; format: functional
Target sequence in this assay (P49327 whole entry, the tested form may be a part): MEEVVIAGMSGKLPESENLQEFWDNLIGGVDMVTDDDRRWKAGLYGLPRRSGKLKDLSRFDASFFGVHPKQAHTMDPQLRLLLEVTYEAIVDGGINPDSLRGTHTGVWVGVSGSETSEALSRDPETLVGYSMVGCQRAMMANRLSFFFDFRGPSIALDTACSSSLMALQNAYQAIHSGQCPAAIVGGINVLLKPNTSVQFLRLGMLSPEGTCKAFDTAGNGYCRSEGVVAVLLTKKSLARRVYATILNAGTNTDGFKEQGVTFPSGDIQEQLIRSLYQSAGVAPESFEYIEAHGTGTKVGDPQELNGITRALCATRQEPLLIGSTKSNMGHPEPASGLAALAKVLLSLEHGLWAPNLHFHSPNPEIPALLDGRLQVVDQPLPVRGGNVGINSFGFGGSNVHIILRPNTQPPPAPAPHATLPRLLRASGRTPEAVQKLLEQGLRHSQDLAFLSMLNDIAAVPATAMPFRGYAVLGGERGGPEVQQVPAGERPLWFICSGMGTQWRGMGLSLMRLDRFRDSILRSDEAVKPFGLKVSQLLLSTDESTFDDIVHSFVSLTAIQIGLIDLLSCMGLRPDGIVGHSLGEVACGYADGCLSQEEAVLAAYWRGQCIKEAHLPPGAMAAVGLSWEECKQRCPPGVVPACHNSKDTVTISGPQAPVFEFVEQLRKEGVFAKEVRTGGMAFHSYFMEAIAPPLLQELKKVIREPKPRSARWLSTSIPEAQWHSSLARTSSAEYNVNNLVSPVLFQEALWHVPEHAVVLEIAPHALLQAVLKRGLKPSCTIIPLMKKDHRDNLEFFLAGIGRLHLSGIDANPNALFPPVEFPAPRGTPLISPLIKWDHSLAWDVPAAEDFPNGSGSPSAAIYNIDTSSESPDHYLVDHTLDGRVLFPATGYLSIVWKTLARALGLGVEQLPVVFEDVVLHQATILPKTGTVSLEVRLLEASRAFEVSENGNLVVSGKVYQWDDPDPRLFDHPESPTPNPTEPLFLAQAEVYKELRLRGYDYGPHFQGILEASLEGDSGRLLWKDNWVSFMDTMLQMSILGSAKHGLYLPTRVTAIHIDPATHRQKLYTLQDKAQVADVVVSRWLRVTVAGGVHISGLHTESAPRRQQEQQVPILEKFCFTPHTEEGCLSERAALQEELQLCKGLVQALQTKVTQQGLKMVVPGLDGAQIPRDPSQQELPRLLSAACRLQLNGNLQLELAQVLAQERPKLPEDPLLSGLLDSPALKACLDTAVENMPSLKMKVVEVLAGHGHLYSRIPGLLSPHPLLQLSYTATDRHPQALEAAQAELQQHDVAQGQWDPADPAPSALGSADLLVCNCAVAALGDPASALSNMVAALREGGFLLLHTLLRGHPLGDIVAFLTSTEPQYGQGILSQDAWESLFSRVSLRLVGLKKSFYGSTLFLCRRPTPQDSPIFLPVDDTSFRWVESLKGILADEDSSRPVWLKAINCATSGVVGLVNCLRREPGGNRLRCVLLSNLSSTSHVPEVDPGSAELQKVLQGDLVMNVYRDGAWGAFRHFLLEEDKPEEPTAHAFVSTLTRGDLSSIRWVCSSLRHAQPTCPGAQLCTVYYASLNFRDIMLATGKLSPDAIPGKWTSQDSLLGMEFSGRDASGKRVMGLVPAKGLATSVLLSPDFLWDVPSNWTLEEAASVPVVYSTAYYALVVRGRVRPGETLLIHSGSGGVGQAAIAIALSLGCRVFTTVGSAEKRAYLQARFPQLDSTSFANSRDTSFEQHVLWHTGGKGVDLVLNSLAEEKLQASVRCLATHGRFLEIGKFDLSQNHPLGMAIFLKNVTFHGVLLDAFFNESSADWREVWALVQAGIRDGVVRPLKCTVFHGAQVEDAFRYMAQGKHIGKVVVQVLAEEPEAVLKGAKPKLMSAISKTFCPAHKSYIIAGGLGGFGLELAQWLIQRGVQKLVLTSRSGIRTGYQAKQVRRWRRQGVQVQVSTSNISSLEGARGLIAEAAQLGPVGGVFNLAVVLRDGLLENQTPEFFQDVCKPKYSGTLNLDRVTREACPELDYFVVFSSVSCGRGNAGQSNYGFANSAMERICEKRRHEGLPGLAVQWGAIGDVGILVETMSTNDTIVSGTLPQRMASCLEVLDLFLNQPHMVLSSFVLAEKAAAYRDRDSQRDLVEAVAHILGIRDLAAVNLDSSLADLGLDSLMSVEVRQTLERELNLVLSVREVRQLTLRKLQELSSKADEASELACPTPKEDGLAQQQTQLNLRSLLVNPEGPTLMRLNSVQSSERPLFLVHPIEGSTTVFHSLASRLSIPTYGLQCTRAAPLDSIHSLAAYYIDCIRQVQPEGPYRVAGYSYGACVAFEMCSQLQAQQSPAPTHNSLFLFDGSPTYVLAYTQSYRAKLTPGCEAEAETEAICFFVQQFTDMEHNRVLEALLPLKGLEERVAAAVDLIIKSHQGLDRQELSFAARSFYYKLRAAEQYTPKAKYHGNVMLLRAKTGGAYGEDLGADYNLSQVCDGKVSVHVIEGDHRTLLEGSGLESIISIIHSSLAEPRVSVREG

[8] = tested on: MDA-MB-435; experiment: Selectivity ratio of IC50 for human MCF10A to IC50 for human MDA-MB-435 cells
[9] = Inhibition of rat liver ACC using acetyl coA as substrate and [14C]NaHCO3 incubated for 30 mins prior to substrate addition by liquid scintillation counting
[10] = target: T2, Fatty acid synthase; experiment: Inhibition of FASN in human HepG2 cells; format: cell-based
Target sequence in this assay (P49327 whole entry, the tested form may be a part): as above

[11] = target: T2, Fatty acid synthase; details: SK-BR-3, 22.4 uM
Target sequence in this assay (P49327 whole entry, looked up, the tested form may be a part): as the sequence (P49327 whole entry, the tested form may be a part) above
Description: Inhibition of FASN in human SKBR3 cells at 22.4 uM

[12] = target: T2, Fatty acid synthase; details: SK-BR-3, 179 uM
Target sequence in this assay (P49327 whole entry, looked up, the tested form may be a part): as the sequence (P49327 whole entry, the tested form may be a part) above
Description: Inhibition of FASN in human SKBR3 cells at 179 uM

[13] = target: T2, Fatty acid synthase; experiment: Inhibition of FASN in human SKBR3 cells at 21 uM after 3 mins by spectrophotometric analysis relative to control; format: cell-based; details: SK-BR-3
Target sequence in this assay (P49327 whole entry, looked up, the tested form may be a part): as the sequence (P49327 whole entry, the tested form may be a part) above

[14] = target: T2, Fatty acid synthase; experiment: Inhibition of FASN in human SKBR3 cells at 29 uM after 3 mins by spectrophotometric analysis relative to control; format: cell-based; details: SK-BR-3
Target sequence in this assay (P49327 whole entry, looked up, the tested form may be a part): as the sequence (P49327 whole entry, the tested form may be a part) above

[15] = target: T3, ATP-citrate synthase (Homo sapiens, UniProt P53396); experiment: Inhibition of human recombinant ACLY
T3 sequence (P53396 whole entry): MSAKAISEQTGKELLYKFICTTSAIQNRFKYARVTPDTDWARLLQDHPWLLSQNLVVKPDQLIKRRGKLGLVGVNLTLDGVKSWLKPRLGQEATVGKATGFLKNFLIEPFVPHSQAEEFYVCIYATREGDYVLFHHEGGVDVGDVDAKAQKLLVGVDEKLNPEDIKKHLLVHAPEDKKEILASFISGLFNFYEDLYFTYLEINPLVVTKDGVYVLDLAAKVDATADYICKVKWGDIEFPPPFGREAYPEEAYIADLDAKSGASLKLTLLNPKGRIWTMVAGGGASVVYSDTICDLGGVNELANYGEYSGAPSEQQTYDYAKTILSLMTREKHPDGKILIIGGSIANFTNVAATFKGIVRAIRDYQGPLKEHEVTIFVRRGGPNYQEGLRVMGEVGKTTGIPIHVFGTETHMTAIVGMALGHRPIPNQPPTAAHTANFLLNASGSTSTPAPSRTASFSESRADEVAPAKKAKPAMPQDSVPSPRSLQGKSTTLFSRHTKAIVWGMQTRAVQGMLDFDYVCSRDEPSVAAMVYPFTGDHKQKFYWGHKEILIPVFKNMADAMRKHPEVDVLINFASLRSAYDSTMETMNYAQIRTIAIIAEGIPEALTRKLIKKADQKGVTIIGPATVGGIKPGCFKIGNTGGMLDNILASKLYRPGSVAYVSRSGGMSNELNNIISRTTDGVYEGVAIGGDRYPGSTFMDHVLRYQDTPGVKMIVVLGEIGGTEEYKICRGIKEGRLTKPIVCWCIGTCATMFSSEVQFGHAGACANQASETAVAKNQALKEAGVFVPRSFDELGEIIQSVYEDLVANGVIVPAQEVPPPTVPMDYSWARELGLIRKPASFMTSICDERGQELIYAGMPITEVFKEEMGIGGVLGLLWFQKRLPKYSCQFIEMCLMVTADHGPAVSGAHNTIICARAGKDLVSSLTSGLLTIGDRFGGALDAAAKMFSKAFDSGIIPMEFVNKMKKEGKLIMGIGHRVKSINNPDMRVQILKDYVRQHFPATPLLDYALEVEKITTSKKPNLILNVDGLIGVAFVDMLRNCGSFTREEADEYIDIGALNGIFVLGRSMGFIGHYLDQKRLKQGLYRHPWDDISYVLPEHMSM

[16] = target: T2, Fatty acid synthase; experiment: Inhibition of human recombinant FASN thioesterase domain
Target sequence in this assay (P49327 whole entry, the tested form may be a part): as the sequence (P49327 whole entry, the tested form may be a part) above

[17] = target: Fatty acid synthase (Gallus gallus, UniProt P12276); experiment: Inhibition of chicken liver FASN ketoreductase activity
[18] = target: T2, Fatty acid synthase; experiment: Inhibition of FASN in human A375 cells; format: cell-based, A-375
Target sequence in this assay (P49327 whole entry, the tested form may be a part): as the sequence (P49327 whole entry, the tested form may be a part) above

Compound: O=C(O)C[C@@](O)(C(=O)O)[C@H](O)C(=O)O
- Ki [1]: 8 µM

Compound: O=C(O)C[C@@]1(C(=O)O)O[C@H]1C(=O)O
- Ki [2]: 18 µM

Compound: O=C1C[C@@](O)(C(=O)O)[C@@H](C(=O)O)O1
- Ki [1]: 50 µM

Compound: Cc1cc(O)c2c(c1)Cc1cc(O)c(Cl)c(O)c1C2=O
- IC50 [2]: 0.283 µM

Compound: CC(C)(C)c1ccc(N2C[C@@H](COc3ccc(C(=O)SCCNC(=O)CCNC(=O)[C@H](O)C(C)(C)COP(=O)(O)OP(=O)(O)OC[C@H]4O[C@@H](n5cnc6c(N)ncnc65)[C@H](O)[C@@H]4OP(=O)(O)O)cc3)CC2=O)cc1
- Ki [3]: 69.2 µM

Compound: CC(C)(COP(=O)(O)OP(=O)(O)OC[C@H]1O[C@@H](n2cnc3c(N)ncnc32)[C@H](O)[C@@H]1OP(=O)(O)O)[C@H](O)C(=O)NCCC(=O)NCCSC(=O)CC(=O)N1C(=O)N[C@@H]2[C@H](CCCCC(=O)OCc3ccccc3)SC[C@@H]21
- Ratio Ki [4]: 350
- Ki [5]: 23 µM

Compound: Cc1c(-c2cc3ccccc3o2)oc(=O)c(C)c1O
- Ki [3]: 3.3 µM

Compound: Cc1cc(C)cc(N2C(=O)NC(=O)/C(=C\c3ccc(-c4ccccc4)o3)C2=O)c1
- IC50 [6]: 3.47 µM
- Ki [7]: 0.38 µM
- Ratio IC50 [8]: 2

Compound: CC(C)(CCCCCC(O)CCCCCC(C)(C)C(=O)SCCNC(=O)CCNC(=O)[C@H](O)C(C)(C)COP(=O)(O)OP(=O)(O)OC[C@H]1O[C@@H](n2cnc3c(N)ncnc32)[C@H](O)[C@@H]1OP(=O)(O)O)C(=O)O (stereo partly specified)
- IC50 [9]: 29 µM

Compound: C=C/C(C)=C/[C@]1(C)SC(=O)C(C)=C1O
- IC50 [10]: 208 µM

Compound: C=C/C(C)=C/[C@]1(C)SC(=O)C=C1O
- IC50 [10]: 96.8 µM

Compound: CCCCC/C=C\C/C=C\C/C=C\CCCCC(=O)O
- inhibition [11]: 41%
- inhibition [12]: 78%

Compound: O=C(Oc1cc(OC(=O)c2cc(O)c(O)c(O)c2)c2ccccc2c1)c1cc(O)c(O)c(O)c1
- inhibition [13]: 90%

Compound: O=C(Oc1ccc(OC(=O)c2cc(O)c(O)c(O)c2)c2ccccc12)c1cc(O)c(O)c(O)c1
- inhibition [14]: 69%

Compound: O=C(O)C[C@](O)(C[C@@H](O)CCCCCC1c2ccccc2-c2cc(Cl)ccc21)C(=O)O (mixture of isomers)
- Ki [15]: 0.22 µM

Compound: O=C(O)[C@H](O)[C@](O)(C[C@@H](O)CCCCCCc1ccc(Cl)cc1Cl)C(=O)O (racemic)
- Ki [15]: 0.62 µM

Compound: Cc1cn(-c2cc(Cl)ccc2CCCCCC[C@H](O)C[C@@](O)(CC(=O)O)C(=O)O)cc1C (racemic)
- Ki [15]: 0.3 µM

Compound: O=C(O)C[C@](O)(C[C@@H](O)CCCCCn1c(-c2ccccc2)cc2cc(Cl)ccc21)C(=O)O (racemic)
- Ki [15]: 0.37 µM

Compound: O=C(O)C[C@](O)(C[C@@H](O)CCCCCn1c2ccccc2c2cc(Cl)ccc21)C(=O)O (racemic)
- Ki [15]: 0.71 µM

Compound: C=C1C(=O)O[C@H](CCCCCCCC)[C@H]1C(=O)O (relative stereo)
- IC50 [16]: 59 µM
- IC50 [17]: 80 µM
- IC50 [18]: 32.4 µM

From ChEMBL document CHEMBL2163275, “The lipogenesis pathway as a cancer target” (J Med Chem, 2011)
